From patent US20170143738A1, “SOLID FORMULATION AND METHOD FOR STABILIZING THE SAME” (EA Pharma Co., Ltd., priority 2014, published 2017)

Tests used:
[1] = Visual observation of coloration of Elobixibat and Elobixibat/additive mixtures after storage; type: physicochemical; conditions: 60° C. and 75% relative humidity, visually observed
Description: (§1) 1,1-dioxo-3,3-dibutyl-5-phenyl-7-methylthio-8-(N—{(R)-1′-phenyl-1′-[N′-(carboxymethyl)carbamoyl]methyl}carbamoylmethoxy)-2,3,4,5-tetrahydro-1,5-benzothiazepine (Elobixibat) and an additive shown in Table 1 were mixed in a weight ratio of 1:1. Thereby, the mixtures according to Reference Examples 2 to 10 were obtained. The mixture of each of Reference Examples 2 to 10, and only Elobixibat as Reference Example 1 was independently stored in an open state for 2 weeks under the conditions of 60° C. and 75% relative humidity. The material of Reference Example 1 and the mixtures according to Reference Examples 2 to 10 after storage were independently dispersed and dissolved in acetonitrile aqueous solution. The total amount of related substance(s) in the aforementioned aqueous solution was calculated as the sum of the areas in percentage for Elobixibat by the measurement in accordance with an HPLC method. In addition, the presence or absence of coloration of the mixtures of Reference Examples 1 to 7 after storage was visually observed. “%” shown in Table 1 indicates percent by weight.

[2] = Storage stability of Elobixibat alone or mixed 1:1 with an additive: total related substance(s) by HPLC; type: physicochemical; conditions: stored in an open state for 2 weeks, 60° C. and 75% relative humidity
Description: as §1

Coloration: Before storage → after storage ([1]; colour before and after 2 weeks open storage): White → white
Coloration after storage ([1]; stored in an open state for 2 weeks): Not observed
Total amount of related substance(s) after storage ([2]; weight ratio 1:1 with additive, sum of HPLC areas in percentage for Elobixibat): 0.6%
Compound: CCCCC1(CCCC)CN(c2ccccc2)c2cc(SC)c(OCC(=O)N[C@@H](C(=O)NCC(=O)O)c3ccccc3)cc2S(=O)(=O)C1 [Reference Example 1, 1,1-dioxo-3,3-dibutyl-5-phenyl-7-methylthio-8-(N—{(R)-1′-phenyl-1′-[N′-(carboxymethyl)carbamoyl]methyl}carbamoylmethoxy)-2,3,4,5-tetrahydro-1,5-benzothiazepine]
Increase of the amount of related substance(s) after storage (in words) ([2]; summary of Table 1): a great increase of the related substance(s) was not observed
